# Results reported in article PMC5218480 (PLoS ONE, 2017).
# System: MV-4-11 cells
# Assay: Gene expression microarray analysis (Affymetrix PrimeView) and GSEA
# Type: cell-based, human
# Set-up: RFU PODN (11730768_x_at) / Fold change /veh PODN (11730768_x_at) / RFU LINC00158 (11744669_a_at) / Fold change /veh LINC00158 (11744669_a_at) / RFU DUSP10 (11751237_a_at) / Fold change /veh DUSP10 (11751237_a_at) / RFU ID3 (11757404_x_at) / Fold change /veh ID3 (11757404_x_at) / RFU PLEKHG5 (11737974_s_at) / Fold change /veh PLEKHG5 (11737974_s_at) / RFU LRRC4B (11730491_at) / Fold change /veh LRRC4B (11730491_at) / RFU GIMAP4 (11747438_a_at) / Fold change /veh GIMAP4 (11747438_a_at) / RFU KRT8 (11758183_x_at) / Fold change /veh KRT8 (11758183_x_at) / RFU CNN1 (11734310_a_at) / Fold change /veh CNN1 (11734310_a_at) / RFU VPS37D (11726825_at) / Fold change /veh VPS37D (11726825_at) / RFU C10orf10 (11716522_x_at) / Fold change /veh C10orf10 (11716522_x_at) / RFU KIR2DL2 /// KIR2DL4 /// KIR2DL5A /// KIR2DL5B /// KIR2DS1 /// KIR2DS2 /// KIR2DS3 /// KIR2DS4 /// KIR3DL3 /// KIR3DL3 /// KIR3DS1 (11738374_at) / Fold change /veh KIR2DL2 /// KIR2DL4 /// KIR2DL5A /// KIR2DL5B /// KIR2DS1 /// KIR2DS2 /// KIR2DS3 /// KIR2DS4 /// KIR3DL3 /// KIR3DL3 /// KIR3DS1 (11738374_at) / RFU C1QL1 (11718748_at) / Fold change /veh C1QL1 (11718748_at) / RFU TMPRSS4 (11747572_a_at) / Fold change /veh TMPRSS4 (11747572_a_at) / RFU HAMP (11756126_x_at) / Fold change /veh HAMP (11756126_x_at) / RFU RNFT2 (11725882_a_at) / Fold change /veh RNFT2 (11725882_a_at) / RFU NR4A2 (11747474_a_at) / Fold change /veh NR4A2 (11747474_a_at) / RFU ABCC12 (11746883_a_at) / Fold change /veh ABCC12 (11746883_a_at) / RFU TMEM136 (11760407_x_at) / Fold change /veh TMEM136 (11760407_x_at) / RFU CLDN22 /// WWC2 (11732394_at) / Fold change /veh CLDN22 /// WWC2 (11732394_at) / RFU HLA-DPB1 (11760878_x_at) / Fold change /veh HLA-DPB1 (11760878_x_at) / RFU SPINT1 (11716480_a_at) / Fold change /veh SPINT1 (11716480_a_at) / RFU GAP43 (11754022_s_at) / Fold change /veh GAP43 (11754022_s_at) / RFU A4GNT (11735810_at) / Fold change /veh A4GNT (11735810_at) / RFU PRB3 (11715151_x_at) / Fold change /veh PRB3 (11715151_x_at) / RFU TUBB4B (11761932_at) / Fold change /veh TUBB4B (11761932_at) / RFU CAPN14 (11732068_a_at) / Fold change /veh CAPN14 (11732068_a_at) / RFU TMCC2 (11721928_a_at) / Fold change /veh TMCC2 (11721928_a_at) / RFU IRGQ (11745062_a_at) / Fold change /veh IRGQ (11745062_a_at) / RFU FAM174B (11720279_a_at) / Fold change /veh FAM174B (11720279_a_at) / RFU TMPRSS4 (11748680_a_at) / Fold change /veh TMPRSS4 (11748680_a_at) / RFU FAM212B (11763350_a_at) / Fold change /veh FAM212B (11763350_a_at) / RFU PLEKHG5 (11743358_a_at) / Fold change /veh PLEKHG5 (11743358_a_at) / RFU ZSCAN30 (11745921_a_at) / Fold change /veh ZSCAN30 (11745921_a_at) / RFU CMKLR1 (11741424_a_at) / Fold change /veh CMKLR1 (11741424_a_at) / RFU LOC101060620 /// MAPK8IP1 (11723275_at) / Fold change /veh LOC101060620 /// MAPK8IP1 (11723275_at) / RFU SPTSSB (11747773_x_at) / Fold change /veh SPTSSB (11747773_x_at) / RFU PRSS12 (11739890_at) / Fold change /veh PRSS12 (11739890_at) / RFU BIN1 (11741810_x_at) / Fold change /veh BIN1 (11741810_x_at) / RFU WNT11 (11732464_a_at) / Fold change /veh WNT11 (11732464_a_at) / RFU C10orf10 (11716521_a_at) / Fold change /veh C10orf10 (11716521_a_at) / RFU C5orf56 (11738089_at) / Fold change /veh C5orf56 (11738089_at) / RFU CYB561 (11721691_x_at) / Fold change /veh CYB561 (11721691_x_at) / RFU ANKRD19P (11752326_a_at) / Fold change /veh ANKRD19P (11752326_a_at) / RFU OR2T12 /// OR2T33 /// OR2T8 (11738714_s_at) / Fold change /veh OR2T12 /// OR2T33 /// OR2T8 (11738714_s_at) / RFU VCAN (11748164_a_at) / Fold change /veh VCAN (11748164_a_at) / RFU JSRP1 (11732532_at) / Fold change /veh JSRP1 (11732532_at) / RFU KRTAP10-11 (11738290_x_at) / Fold change /veh KRTAP10-11 (11738290_x_at) / RFU MYO3A (11730013_a_at) / Fold change /veh MYO3A (11730013_a_at) / RFU EBF3 (11725865_a_at) / Fold change /veh EBF3 (11725865_a_at) / RFU CAMK2N1 (11719241_x_at) / Fold change /veh CAMK2N1 (11719241_x_at) / RFU C5orf56 (11738088_a_at) / Fold change /veh C5orf56 (11738088_a_at) / RFU OLFML3 (11715873_a_at) / Fold change /veh OLFML3 (11715873_a_at) / RFU LOC100653217 /// NTM (11731650_a_at) / Fold change /veh LOC100653217 /// NTM (11731650_a_at) / RFU MAPK11 (11762145_a_at) / Fold change /veh MAPK11 (11762145_a_at) / RFU FIZ1 (11724087_x_at) / Fold change /veh FIZ1 (11724087_x_at) / RFU OASL (11726364_x_at) / Fold change /veh OASL (11726364_x_at) / RFU SOX15 (11748057_x_at) / Fold change /veh SOX15 (11748057_x_at) / RFU CD79A (11719716_a_at) / Fold change /veh CD79A (11719716_a_at) / RFU HIST1H1D (11736915_at) / Fold change /veh HIST1H1D (11736915_at) / RFU CASKIN2 (11723855_a_at) / Fold change /veh CASKIN2 (11723855_a_at) / RFU LOC730098 (11760151_x_at) / Fold change /veh LOC730098 (11760151_x_at) / RFU OR4N2 (11742367_at) / Fold change /veh OR4N2 (11742367_at) / RFU PRRT2 (11749266_a_at) / Fold change /veh PRRT2 (11749266_a_at) / RFU SNX32 (11753110_a_at) / Fold change /veh SNX32 (11753110_a_at) / RFU CDHR5 (11726645_a_at) / Fold change /veh CDHR5 (11726645_a_at) / RFU RCAN1 (11760418_a_at) / Fold change /veh RCAN1 (11760418_a_at) / RFU FAM167A (11723789_a_at) / Fold change /veh FAM167A (11723789_a_at) / RFU FAM26E (11764081_at) / Fold change /veh FAM26E (11764081_at) / RFU ISYNA1 (11749810_s_at) / Fold change /veh ISYNA1 (11749810_s_at) / RFU ACY1 (11761880_at) / Fold change /veh ACY1 (11761880_at) / RFU 11764098_at / Fold change /veh 11764098_at / RFU SAMD14 (11745864_x_at) / Fold change /veh SAMD14 (11745864_x_at) / RFU NPB (11741838_a_at) / Fold change /veh NPB (11741838_a_at) / RFU TMPRSS6 (11731388_a_at) / Fold change /veh TMPRSS6 (11731388_a_at) / RFU KRTAP10-2 (11738614_at) / Fold change /veh KRTAP10-2 (11738614_at) / RFU ARHGAP8 /// PRR5-ARHGAP8 (11727945_x_at) / Fold change /veh ARHGAP8 /// PRR5-ARHGAP8 (11727945_x_at) / RFU KRTAP5-7 /// NADSYN1 (11734609_at) / Fold change /veh KRTAP5-7 /// NADSYN1 (11734609_at) / RFU RASL12 (11751679_a_at) / Fold change /veh RASL12 (11751679_a_at) / RFU CDKN2B (11736163_a_at) / Fold change /veh CDKN2B (11736163_a_at) / RFU PRF1 (11729649_at) / Fold change /veh PRF1 (11729649_at) / RFU, ZNF638 /// ZNF638-IT1 / Fold change vs veh, ZNF638 /// ZNF638-IT1 / RFU, PANK3 / Fold change vs veh, PANK3 / RFU, SH3YL1 / Fold change vs veh, SH3YL1 / RFU, ZEB2 / Fold change vs veh, ZEB2 / RFU, NRIP1 / Fold change vs veh, NRIP1 / RFU, PTTG1IP / Fold change vs veh, PTTG1IP / RFU, CAPN2 / Fold change vs veh, CAPN2 / RFU, MED14 / Fold change vs veh, MED14 / RFU, SNORA58 / Fold change vs veh, SNORA58 / RFU, C1orf63 / Fold change vs veh, C1orf63 / RFU, LRRFIP1 / Fold change vs veh, LRRFIP1 / RFU, NDUFAF7 / Fold change vs veh, NDUFAF7 / RFU, SLC12A2 / Fold change vs veh, SLC12A2 / RFU, IBTK / Fold change vs veh, IBTK / RFU, ESF1 / Fold change vs veh, ESF1 / Fold change vs veh, TMEM50B / RFU, TAOK1 / Fold change vs veh, TAOK1 / RFU, ACBD3 / Fold change vs veh, ACBD3 / RFU, TMA16 / Fold change vs veh, TMA16 / RFU, RWDD3 / Fold change vs veh, RWDD3 / RFU, BCAT1 / Fold change vs veh, BCAT1 / RFU, EDEM3 / Fold change vs veh, EDEM3 / RFU, TMEM33 / Fold change vs veh, TMEM33 / RFU, WDR75 / Fold change vs veh, WDR75 / RFU, AHCTF1 / Fold change vs veh, AHCTF1 / RFU, TFRC / Fold change vs veh, TFRC / RFU, ZDHHC17 / Fold change vs veh, ZDHHC17 / RFU, NOM1 / Fold change vs veh, NOM1 / RFU, ARL8B / Fold change vs veh, ARL8B / RFU, ZBTB11 / Fold change vs veh, ZBTB11 / RFU, TAMM41 / Fold change vs veh, TAMM41 / RFU, KIAA1704 /// LOC100996395 / Fold change vs veh, KIAA1704 /// LOC100996395 / RFU, ING1 / Fold change vs veh, ING1 / RFU, TRMT61B / Fold change vs veh, TRMT61B / RFU, FUBP3 / Fold change vs veh, FUBP3 / RFU, TP53 / Fold change vs veh, TP53 / RFU, TNKS2 / Fold change vs veh, TNKS2 / RFU, ZFP14 / Fold change vs veh, ZFP14 / RFU, ACTR2 / Fold change vs veh, ACTR2 / RFU, PPP3R1 / Fold change vs veh, PPP3R1 / RFU, PIK3R1 / Fold change vs veh, PIK3R1 / RFU, HNRNPA1 / Fold change vs veh, HNRNPA1 / RFU, RNF170 / Fold change vs veh, RNF170 / RFU, ZNF28 / Fold change vs veh, ZNF28 / RFU, RNGTT / Fold change vs veh, RNGTT / RFU, OGT / Fold change vs veh, OGT / RFU, BRD1 / Fold change vs veh, BRD1 / RFU, MARS / Fold change vs veh, MARS / RFU, ZNF655 / Fold change vs veh, ZNF655 / RFU, FAHD1 / Fold change vs veh, FAHD1 / RFU, BDP1 / Fold change vs veh, BDP1 / RFU, LRRCC1 / Fold change vs veh, LRRCC1 / RFU, ARID1A / Fold change vs veh, ARID1A / RFU, ZNF146 / Fold change vs veh, ZNF146 / RFU, ZNF330 / Fold change vs veh, ZNF330 / RFU, GPN3 / Fold change vs veh, GPN3 / RFU, C9orf123 / Fold change vs veh, C9orf123 / RFU, N4BP2L2 / Fold change vs veh, N4BP2L2 / RFU, ARFIP1 / Fold change vs veh, ARFIP1 / RFU, FAM179B / Fold change vs veh, FAM179B / RFU, BCL10 / Fold change vs veh, BCL10 / RFU, UHRF1BP1L / Fold change vs veh, UHRF1BP1L / RFU, BET1 / Fold change vs veh, BET1 / RFU, CNOT2 / Fold change vs veh, CNOT2 / RFU, ZNF268 / Fold change vs veh, ZNF268 / Fold change vs veh, ZNF507 / RFU, DGCR2 / Fold change vs veh, DGCR2 / RFU, WDSUB1 / Fold change vs veh, WDSUB1 / Fold change vs veh, HSP90B1 /// MIR3652 / RFU, ADSS / Fold change vs veh, ADSS / RFU, GK / Fold change vs veh, GK / RFU, ZNF148 / Fold change vs veh, ZNF148 / RFU, TAF9 / Fold change vs veh, TAF9 / RFU, SLC1A5 / Fold change vs veh, SLC1A5 / RFU, SLMO2 / Fold change vs veh, SLMO2 / RFU, ABCC4 / Fold change vs veh, ABCC4 / RFU, LOC101060439 /// RAP1B / Fold change vs veh, LOC101060439 /// RAP1B / RFU, RFX7 / Fold change vs veh, RFX7 / RFU, GTPBP10 / Fold change vs veh, GTPBP10 / RFU, CNEP1R1 / Fold change vs veh, CNEP1R1 / RFU, BIVM-ERCC5 /// ERCC5 / Fold change vs veh, BIVM-ERCC5 /// ERCC5 / RFU, ILF3 / Fold change vs veh, ILF3 / RFU 11762660_at / Fold change /veh 11762660_at / RFU VCAN (11757783_s_at) / Fold change /veh VCAN (11757783_s_at) / RFU DDX43 (11728927_at) / Fold change /veh DDX43 (11728927_at) / RFU KRT8 (11758188_x_at) / Fold change /veh KRT8 (11758188_x_at) / RFU NKD1 (11759106_at) / Fold change /veh NKD1 (11759106_at) / RFU SRD5A1 (11742802_a_at) / Fold change /veh SRD5A1 (11742802_a_at) / RFU TPSAB1 /// TPSB2 (11721975_s_at) / Fold change /veh TPSAB1 /// TPSB2 (11721975_s_at) / RFU GSTM3 (11746129_a_at) / Fold change /veh GSTM3 (11746129_a_at) / RFU IL23R (11737362_x_at) / Fold change /veh IL23R (11737362_x_at) / RFU TMEM51 (11727254_a_at) / Fold change /veh TMEM51 (11727254_a_at) / RFU PIWIL2 (11732686_x_at) / Fold change /veh PIWIL2 (11732686_x_at) / RFU ORM1 (11744905_x_at) / Fold change /veh ORM1 (11744905_x_at) / RFU CCDC152 (11743942_at) / Fold change /veh CCDC152 (11743942_at) / RFU ECM1 (11717891_a_at) / Fold change /veh ECM1 (11717891_a_at) / RFU IL23R (11748794_a_at) / Fold change /veh IL23R (11748794_a_at) / RFU TNFAIP8L3 (11732012_x_at) / Fold change /veh TNFAIP8L3 (11732012_x_at) / RFU MBOAT4 (11741988_at) / Fold change /veh MBOAT4 (11741988_at) / RFU 11764193_at / Fold change /veh 11764193_at / RFU TMEM53 (11763286_at) / Fold change /veh TMEM53 (11763286_at) / RFU MAGEB2 (11727129_at) / Fold change /veh MAGEB2 (11727129_at) / RFU TMEM200A (11744735_a_at) / Fold change /veh TMEM200A (11744735_a_at) / RFU CCDC152 (11751479_a_at) / Fold change /veh CCDC152 (11751479_a_at) / RFU FAM211A (11726209_a_at) / Fold change /veh FAM211A (11726209_a_at) / RFU RGS16 (11746705_a_at) / Fold change /veh RGS16 (11746705_a_at) / RFU VCAN (11755009_s_at) / Fold change /veh VCAN (11755009_s_at) / RFU RHOB (11743442_s_at) / Fold change /veh RHOB (11743442_s_at) / RFU RGS16 (11720943_a_at) / Fold change /veh RGS16 (11720943_a_at) / RFU RGS16 (11720944_at) / Fold change /veh RGS16 (11720944_at) / RFU, VPS4B / Fold change vs veh, VPS4B / RFU, CREB1 / Fold change vs veh, CREB1 / RFU, DNAJC13 / Fold change vs veh, DNAJC13 / RFU, GNAQ / Fold change vs veh, GNAQ / RFU, CDK5R1 / Fold change vs veh, CDK5R1 / RFU, ZRANB3 / Fold change vs veh, ZRANB3 / RFU, CUL4A / Fold change vs veh, CUL4A / RFU, CCNY / Fold change vs veh, CCNY / RFU, UFL1 / Fold change vs veh, UFL1 / RFU, COG3 / Fold change vs veh, COG3 / RFU, DIAPH2 / Fold change vs veh, DIAPH2 / RFU, SKA2 / Fold change vs veh, SKA2 / RFU, AFF3 / Fold change vs veh, AFF3 / RFU, LMF1 / Fold change vs veh, LMF1 / RFU, IPO11 / Fold change vs veh, IPO11 / RFU, DFFB / Fold change vs veh, DFFB / RFU, FOXP1 / Fold change vs veh, FOXP1 / RFU, CARD8 / Fold change vs veh, CARD8 / RFU, STRN3 / Fold change vs veh, STRN3 / RFU, ADK / Fold change vs veh, ADK / RFU, RASSF2 / Fold change vs veh, RASSF2 / RFU, WIPF1 / Fold change vs veh, WIPF1 / RFU, LARP1B / Fold change vs veh, LARP1B / RFU, RASA1 / Fold change vs veh, RASA1 / RFU, RB1 / Fold change vs veh, RB1 / RFU, PPFIA1 / Fold change vs veh, PPFIA1 / RFU, MAT2A / Fold change vs veh, MAT2A / RFU, CCT5 / Fold change vs veh, CCT5 / RFU, WDR92 / Fold change vs veh, WDR92 / RFU, CUX1 / Fold change vs veh, CUX1 / RFU, TTC7A / Fold change vs veh, TTC7A / RFU, TMEM135 / Fold change vs veh, TMEM135 / RFU, DEPTOR / Fold change vs veh, DEPTOR / RFU, CPM / Fold change vs veh, CPM / RFU, DNAJB6 / Fold change vs veh, DNAJB6 / RFU, CACNA2D3 / Fold change vs veh, CACNA2D3 / RFU, DTX4 / Fold change vs veh, DTX4 / RFU, TFCP2 / Fold change vs veh, TFCP2 / RFU, GMCL1 /// GMCL1P1 / Fold change vs veh, GMCL1 /// GMCL1P1 / RFU, AEBP2 / Fold change vs veh, AEBP2 / RFU, SNHG1 /// SNORD22 /// SNORD25 /// SNORD26 /// SNORD27 /// SNORD28 /// SNORD29 /// SNORD31 / Fold change vs veh, SNHG1 /// SNORD22 /// SNORD25 /// SNORD26 /// SNORD27 /// SNORD28 /// SNORD29 /// SNORD31 / Fold change (Aza/veh), C12orf56 (ProbeSet 11735607_a_at) / Fold change (ACY-1035/veh), C12orf56 (ProbeSet 11735607_a_at) / Fold change (Aza/veh), FGFR1OP (ProbeSet 11751329_s_at) / Fold change (ACY-1035/veh), FGFR1OP (ProbeSet 11751329_s_at) / Fold change (Aza/veh), VPS36 (ProbeSet 11739960_a_at) / Fold change (ACY-1035/veh), VPS36 (ProbeSet 11739960_a_at) / RFU SYPL1 (11715823_x_at) / Fold change /veh SYPL1 (11715823_x_at) / RFU IGFBP7 (11715501_s_at) / Fold change /veh IGFBP7 (11715501_s_at) / RFU REEP3 (11722064_at) / Fold change /veh REEP3 (11722064_at) / RFU IGLL1 (11728026_x_at) / Fold change /veh IGLL1 (11728026_x_at): dose or concentration left out as unconfirmed
# Conditions: MV-4-11 cells, 48 hours
structure (smiles),measurement,value
Nc1ccc(-c2cccs2)cc1NC(=O)c1ccc2c(c1)cc(C1CC1)n2CCN1CCOCC1 [ACY-1035],Fold change /veh RNFT2 (11725882_a_at),1.00
